{
  "source": "paper PMC4039110",
  "about": "“The histone demethylase JMJD1A induces cell migration and invasion by up-regulating the expression of the long noncoding RNA MALAT1” (Oncotarget, 2014)",
  "key": {"[1]": {"test_system": "MALAT1", "experiment": "Real-time RT-PCR of MALAT1 RNA expression in BE(2)-C cells", "assay_type": "cell-based, human", "details": "[…]μM DMOG, 48 hours, vs vehicle control", "text": "Gene expression in tumor cells was examined by quantitative real-time RT-PCR as described previously. For the analysis of protein expression by immunoblot, cells were lysed, protein extracted and separated by gel electrophoresis. After western transfer, membranes were probed with mouse anti-N-Myc antibody (1:1000) (Santa Cruz Biotech, CA, USA) or rabbit anti-JMJD1A antibody (1:500) (Abcam, Cambridge, MA, USA), followed by horseradish peroxidase-conjugated anti-mouse (1:10000) or anti-rabbit (1:20000) antiserum (Santa Cruz Biotech). Protein bands were visualized with SuperSignal (Pierce, Rockford, IL, USA). The membranes were lastly re-probed with an anti-actin antibody (Sigma, St Louis, MO, USA) as loading controls."}, "[2]": {"test_system": "BE(2)-C cells", "experiment": "Cell proliferation, Alamar blue assay, BE(2)-C", "assay_type": "cell-based, human", "details": "range of doses of DMOG, 72 hours", "description": "Cell proliferation was examined with Alamar blue assays. Briefly, cells were plated into 96 well plates, transfected with various siRNAs or treated with different dosages of DMOG. Seventy-two hours later, cells were incubated with Alamar blue (Invitrogen) for 5 hours, and plates were then read on a micro-plate reader at 570/595 nm. Results were calculated according to the optical density absorbance units and expressed as percentage changes in cell numbers."}, "[3]": {"test_system": "BE(2)-C cells", "experiment": "Cell migration (wound healing) assay with Ibidi Culture Inserts", "assay_type": "cell-based, human", "details": "[…]μM DMOG vs vehicle control", "description": "Ibidi Culture Inserts (DKSH, Sydney, Australia) were placed in the center of 6 well plates. BE(2)-C cells were added into the wells outside the inserts. Sixteen hours later, the inserts were removed to create “wounds”. Photos of the “wounds” were taken under microscope, and the areas of the remaining “wounds” were measured and analyzed with Image J software (National Institutes of Health, USA)."}, "[4]": {"test_system": "BE(2)-C cells", "experiment": "Matrigel cell invasion assay", "assay_type": "cell-based, human", "details": "[…]μM DMOG for 20 hours, invasion quantified 22 hours later, vs vehicle control", "description": "BE(2)-C cells were transfected with siRNA or treated with JMJD1A inhibitors for 20 hours, and then detached and added onto BD Falcon Cell Culture Inserts coated with Matrigel inside BD BioCoat Matrigel Invasion Chambers (Becton Dickinson, Bedford, MA, USA). Cells invaded through Matrigel to the bottom side of the inserts were stained with toluidine blue, photographed under microscope and quantified."}, "[5]": {"molecular_target": "T1, JMJD2A (Homo sapiens, UniProt O75164)", "T1 sequence (O75164 1-1064)": "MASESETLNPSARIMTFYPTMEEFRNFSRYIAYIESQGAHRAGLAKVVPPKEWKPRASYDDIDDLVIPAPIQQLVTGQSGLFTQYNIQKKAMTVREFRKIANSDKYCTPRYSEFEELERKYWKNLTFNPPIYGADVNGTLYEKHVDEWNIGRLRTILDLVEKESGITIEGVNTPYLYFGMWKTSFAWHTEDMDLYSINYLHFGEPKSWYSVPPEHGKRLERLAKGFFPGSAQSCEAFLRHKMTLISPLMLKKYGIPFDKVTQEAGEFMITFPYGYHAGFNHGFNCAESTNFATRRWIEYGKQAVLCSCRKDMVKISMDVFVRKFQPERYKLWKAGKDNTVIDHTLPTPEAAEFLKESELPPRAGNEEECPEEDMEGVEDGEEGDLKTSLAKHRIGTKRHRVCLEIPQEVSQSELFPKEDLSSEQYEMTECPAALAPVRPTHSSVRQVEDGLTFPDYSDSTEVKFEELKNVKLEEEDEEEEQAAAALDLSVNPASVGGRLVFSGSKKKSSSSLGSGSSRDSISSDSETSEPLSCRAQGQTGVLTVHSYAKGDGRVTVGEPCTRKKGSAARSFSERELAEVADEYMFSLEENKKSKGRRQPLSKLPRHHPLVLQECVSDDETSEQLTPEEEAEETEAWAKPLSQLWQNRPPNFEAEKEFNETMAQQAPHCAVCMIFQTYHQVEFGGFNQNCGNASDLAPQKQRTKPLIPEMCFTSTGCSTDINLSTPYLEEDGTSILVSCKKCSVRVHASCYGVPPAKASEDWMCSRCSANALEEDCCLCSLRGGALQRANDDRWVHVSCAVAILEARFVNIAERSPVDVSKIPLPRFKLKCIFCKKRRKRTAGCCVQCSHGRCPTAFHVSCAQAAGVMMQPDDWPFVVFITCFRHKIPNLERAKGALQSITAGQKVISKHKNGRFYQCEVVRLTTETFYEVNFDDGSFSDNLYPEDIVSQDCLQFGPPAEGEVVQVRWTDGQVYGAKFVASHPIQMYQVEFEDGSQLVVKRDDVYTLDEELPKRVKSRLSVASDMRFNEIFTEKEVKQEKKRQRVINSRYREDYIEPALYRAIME", "experiment": "Histone demethylase inhibition assay, JMJD2A", "assay_type": "biochemical", "details": "in vitro; compared with JMJD1A"}, "[6]": {"molecular_target": "T2, JMJD2C (Homo sapiens, UniProt Q9H3R0)", "T2 sequence (Q9H3R0 1-1056)": "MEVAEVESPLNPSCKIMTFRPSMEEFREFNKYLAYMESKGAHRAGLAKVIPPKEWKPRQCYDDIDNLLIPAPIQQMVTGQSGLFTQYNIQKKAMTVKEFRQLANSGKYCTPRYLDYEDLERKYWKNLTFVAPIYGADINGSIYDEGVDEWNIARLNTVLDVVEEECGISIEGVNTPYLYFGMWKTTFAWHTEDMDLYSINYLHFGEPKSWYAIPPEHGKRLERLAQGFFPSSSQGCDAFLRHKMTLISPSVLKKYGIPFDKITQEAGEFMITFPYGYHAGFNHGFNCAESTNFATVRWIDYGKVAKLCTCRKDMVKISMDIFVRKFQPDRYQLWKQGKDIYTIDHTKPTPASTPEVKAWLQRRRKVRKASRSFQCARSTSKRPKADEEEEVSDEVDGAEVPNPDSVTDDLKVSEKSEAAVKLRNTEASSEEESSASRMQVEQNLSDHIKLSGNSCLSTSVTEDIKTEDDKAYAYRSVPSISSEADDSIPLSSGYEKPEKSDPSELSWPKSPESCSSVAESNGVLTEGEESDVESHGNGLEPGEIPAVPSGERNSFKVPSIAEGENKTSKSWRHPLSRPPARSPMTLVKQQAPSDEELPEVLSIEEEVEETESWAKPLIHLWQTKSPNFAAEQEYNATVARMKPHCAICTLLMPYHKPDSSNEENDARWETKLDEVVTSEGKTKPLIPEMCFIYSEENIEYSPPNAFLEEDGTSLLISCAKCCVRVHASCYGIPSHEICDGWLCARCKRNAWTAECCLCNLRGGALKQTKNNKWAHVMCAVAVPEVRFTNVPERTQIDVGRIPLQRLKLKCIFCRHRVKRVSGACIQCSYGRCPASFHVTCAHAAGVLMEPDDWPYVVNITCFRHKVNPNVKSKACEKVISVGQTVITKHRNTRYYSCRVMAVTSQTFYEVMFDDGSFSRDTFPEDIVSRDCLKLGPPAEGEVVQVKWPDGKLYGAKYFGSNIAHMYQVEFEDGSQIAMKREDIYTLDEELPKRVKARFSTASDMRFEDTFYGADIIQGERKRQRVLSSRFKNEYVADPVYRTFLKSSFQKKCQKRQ", "experiment": "Histone demethylase inhibition assay, JMJD2C", "assay_type": "biochemical", "details": "in vitro; compared with JMJD1A"}, "[7]": {"molecular_target": "JARID1A (Homo sapiens, UniProt P29375)", "sequence (P29375 whole entry)": "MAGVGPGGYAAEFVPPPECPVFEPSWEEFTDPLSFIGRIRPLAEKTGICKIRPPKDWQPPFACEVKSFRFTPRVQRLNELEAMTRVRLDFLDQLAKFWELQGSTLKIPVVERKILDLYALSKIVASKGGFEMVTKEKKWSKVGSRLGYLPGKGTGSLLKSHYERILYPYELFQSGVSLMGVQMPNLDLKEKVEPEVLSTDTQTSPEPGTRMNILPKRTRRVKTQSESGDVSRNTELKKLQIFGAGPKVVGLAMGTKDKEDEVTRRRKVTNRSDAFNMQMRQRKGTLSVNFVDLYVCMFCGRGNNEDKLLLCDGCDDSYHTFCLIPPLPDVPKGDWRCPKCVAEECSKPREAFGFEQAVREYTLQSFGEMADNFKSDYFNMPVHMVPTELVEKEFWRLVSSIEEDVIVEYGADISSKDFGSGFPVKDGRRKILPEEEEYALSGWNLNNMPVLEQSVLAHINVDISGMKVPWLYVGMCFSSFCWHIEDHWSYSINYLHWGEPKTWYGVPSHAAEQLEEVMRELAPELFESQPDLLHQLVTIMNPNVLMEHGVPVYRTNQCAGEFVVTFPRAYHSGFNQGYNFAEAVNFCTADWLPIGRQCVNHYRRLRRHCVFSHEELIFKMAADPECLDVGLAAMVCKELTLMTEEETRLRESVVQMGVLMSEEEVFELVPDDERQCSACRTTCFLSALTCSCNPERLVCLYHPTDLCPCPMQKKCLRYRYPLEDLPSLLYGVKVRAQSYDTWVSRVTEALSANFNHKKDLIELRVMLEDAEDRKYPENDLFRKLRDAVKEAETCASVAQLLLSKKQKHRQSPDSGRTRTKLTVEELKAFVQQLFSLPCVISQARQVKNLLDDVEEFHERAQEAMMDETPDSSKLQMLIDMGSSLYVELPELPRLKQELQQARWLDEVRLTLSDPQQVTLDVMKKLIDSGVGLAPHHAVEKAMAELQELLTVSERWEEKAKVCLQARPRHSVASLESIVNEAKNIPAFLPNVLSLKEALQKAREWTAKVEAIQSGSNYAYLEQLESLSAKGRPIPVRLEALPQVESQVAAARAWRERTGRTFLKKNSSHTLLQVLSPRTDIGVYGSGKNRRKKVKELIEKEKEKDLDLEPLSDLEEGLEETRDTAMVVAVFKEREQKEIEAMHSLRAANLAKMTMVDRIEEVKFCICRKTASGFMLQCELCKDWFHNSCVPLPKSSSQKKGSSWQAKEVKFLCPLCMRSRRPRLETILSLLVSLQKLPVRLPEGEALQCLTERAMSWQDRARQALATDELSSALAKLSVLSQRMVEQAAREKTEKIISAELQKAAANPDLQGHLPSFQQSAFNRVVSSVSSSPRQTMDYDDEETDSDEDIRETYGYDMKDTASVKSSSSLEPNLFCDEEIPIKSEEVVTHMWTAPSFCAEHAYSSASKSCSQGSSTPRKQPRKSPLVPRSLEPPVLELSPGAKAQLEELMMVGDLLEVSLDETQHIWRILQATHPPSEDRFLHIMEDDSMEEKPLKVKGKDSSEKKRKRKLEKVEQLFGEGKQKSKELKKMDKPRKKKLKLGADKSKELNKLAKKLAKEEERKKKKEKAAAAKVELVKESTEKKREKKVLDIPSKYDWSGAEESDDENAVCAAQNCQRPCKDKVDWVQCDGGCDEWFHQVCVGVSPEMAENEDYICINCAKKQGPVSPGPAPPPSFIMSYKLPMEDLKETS", "experiment": "Formaldehyde dehydrogenase-coupled assay, JARID1A", "assay_type": "biochemical", "details": "in vitro; compared with JMJD1A"}},
  "data": [
    {"smiles": "COC(=O)CNC(=O)C(=O)OC", "note": "[DMOG]", "values": [
      {"measurement": "MALAT1 gene expression", "setting": "[1]", "value": "reduced"},
      {"measurement": "Cell proliferation (viable cells, Alamar blue)", "setting": "[2]", "value": "no effect"},
      {"measurement": "Increase in area of remaining wounds", "setting": "[3]; 32 hours after removal of inserts", "value": "approximately 47%"},
      {"measurement": "Increase in area of remaining wounds", "setting": "[3]; 48 hours after removal of inserts", "value": "~895", "unit": "%"},
      {"measurement": "Reduction of cell invasion through Matrigel", "setting": "[4]", "value": "approximately 52%"}
    ]},
    {"smiles": "O=C(O)CNC(=O)C(=O)O", "note": "[NOG, N-oxalylglycine]", "values": [
      {"measurement": "Inhibition of other histone demethylases (JMJD2A), concentration in words", "setting": "[5]", "value": "much higher concentrations"},
      {"measurement": "Inhibition of other histone demethylases (JMJD2C), concentration in words", "setting": "[6]", "value": "much higher concentrations"},
      {"measurement": "Inhibition of other histone demethylases (JARID1A), concentration in words", "setting": "[7]", "value": "much higher concentrations"}
    ]}
  ]
}
